The target of this assay is T1, hP2X7 (Homo sapiens, UniProt Q99572).
T1 construct: expressed in transfected cells; host or cells: HEK-293, stably transfected (gift of E. Adinolfi's group, Ferrara University)
T1 sequence (Q99572 1-595): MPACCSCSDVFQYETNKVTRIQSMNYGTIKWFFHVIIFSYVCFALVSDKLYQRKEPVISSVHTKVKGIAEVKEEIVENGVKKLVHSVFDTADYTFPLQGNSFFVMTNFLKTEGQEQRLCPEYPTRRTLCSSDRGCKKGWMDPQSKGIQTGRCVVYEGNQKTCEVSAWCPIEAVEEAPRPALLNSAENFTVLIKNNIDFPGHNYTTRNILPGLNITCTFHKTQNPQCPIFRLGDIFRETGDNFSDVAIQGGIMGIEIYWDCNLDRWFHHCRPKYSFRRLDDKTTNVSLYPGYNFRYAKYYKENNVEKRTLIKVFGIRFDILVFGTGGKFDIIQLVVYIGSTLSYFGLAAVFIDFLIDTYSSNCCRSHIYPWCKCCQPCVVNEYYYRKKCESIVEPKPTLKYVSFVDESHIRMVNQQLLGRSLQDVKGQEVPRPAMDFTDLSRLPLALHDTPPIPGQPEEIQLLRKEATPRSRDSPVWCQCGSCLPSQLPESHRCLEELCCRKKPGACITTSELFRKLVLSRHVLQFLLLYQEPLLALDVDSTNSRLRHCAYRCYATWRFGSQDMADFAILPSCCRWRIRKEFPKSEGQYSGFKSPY
As to the kind of experiment: YO-PRO 1 dye uptake assay, 1321 N1 cells stably transfected with hP2X7. The format is cell-based. The following applies: for activity in YO-PRO 1 dye uptake screen / reduction of P2X7 activation: compound 30 μM, 700 μM ATP; for reduction of P2X7 activation: 0.3% DMSO. As for the experimental part: Astrocytoma 1321 N1 (established by Dr. Gaia Pasqualetto) and HEK-293 (kindly gifted by E. Adinolfi’s group, Ferrara University) both stably transfected with hP2X7, were used to assess the activity of the small molecules selected from the VS. Cells were maintained in DMEM:F12 (PanBiotech) supplemented with 10% FBS, 1% pen-strep, and 150 μg/mL G418 (PanBiotech).
Astrocytoma 1321 N1 cells (2–2.5 × 10^4 cells/well) and HEK-293 cells (4–5 × 10^4 cells/well) expressing hP2X7 were seeded in poly-L-lysine-coated 96-well plates (Sarstedt) 24 h before the experiment. YO-PRO 1 dye was prepared at 5 μM in extracellular solution with low divalent cations (ECS-LD) buffer (147 mM NaCl, 10 mM HEPES, 13 mM glucose, 0.2 mM CaCl2, 2 mM KCl, pH 7.4) and added to cells after washing them with Dulbecco’s phosphate- buffered saline (DPBS) (PanBiotech) and incubated for 20 min at 37 °C. ATP-induced dye uptake, mediated by hP2X7 activation, was monitored using a Clariostar plate reader (excitation: 485 nm; emission: 538 nm) for 30 cycles (75–150 s/cycle), after recording the baseline for five cycles. hP2X7 activation was quantified at cycle 10 by calculating the fluorescence intensity (FI) ratio (Δ(Fcycle 10–F cycle 1)/cycle time).
The P2X7 receptor, besides being a ligand-gated ion channel, forms large membrane pores following prolonged exposure to high concentrations of ATP, leading to apoptosis (Mackenzie et al. 2005). The YO-PRO 1 dye uptake assay, which measures dye influx through these pores, was selected as the primary screen. The fluorescence of YO-PRO 1 increases when it binds to DNA, enabling real-time monitoring of P2X7 activation (calculated as the rate of increase in fluorescence as YO-PRO 1 binds nuclear DNA).
The screening compounds were tested at 30 μM (0.3% DMSO) in 5 μM YO-PRO 1 dye diluted in freshly prepared ECS-LD buffer. Cells pretreated with the screening compounds were challenged with 700 μM ATP, and the fluorescence intensities were recorded. The negative control consisted of cells treated with 0.3% DMSO, while the positive control was 0.1 μM JNJ47965567, a selective P2X7 antagonist. ,
2 Initial screening assays to identify hit compounds. (A) The compounds were screened at 30 μM in the YO-PRO 1 dye uptake using 1321 N1 cells stably transfected with hP2X7. Compound activity was evaluated along a time of 20 min (75 s per cycle) after ATP addition (700 μM). The fluorescence intensity (FI) values of the first 10 cycles were considered for assessing their ability to inhibit hP2X7. Compound responses were normalized to the fluorescent signal recorded on 0.3% DMSO cells treated with 700 μM ATP of each plate. […] (B) Compounds screened at 10 μM using MPR using 1321 N1 cells stably transfected with hP2X7. The compound activity was evaluated for 5 min after ATP addition (15 s per cycle). The fluorescence intensity recorded in the first cycles (before reaching a plateau response) was considered for assessing the small molecule’s ability to inhibit hP2X7. Compound responses were normalized to the fluorescence signal recorded on 0.1% DMSO cells treated with 700 μM ATP of each plate. […] One-way ANOVA and Dunnet test were used for statistical analysis (****P < 0.0001), (*P < 0.02).

Molecules are shown by their SMILES.

Data on three compounds can be found in PMC12264943, “Identification of New Human P2X7 Antagonists Using Ligand- and Structure-Based Virtual Screening” (Journal of Chemical Information and Modeling, 2025).

By EC50 is commonly meant the concentration that produces a half-maximal response. Read a high EC50 as weaker potency. Take `Nc1ncnc2c1ncn2[C@@H]1O[C@H](COP(=O)(O)OP(=O)(O)OP(=O)(O)O)[C@@H](O)[C@H]1O` [ATP, reference compound]: where the note is “YO-PRO 1 uptake, 1321 N1 hP2X7 cells”, the “Hill Slope of ATP concentration-response curve” value is 1.161. Besides, the EC50 (YO-PRO 1 uptake, 1321 N1 hP2X7 cells, ATP 1 μM to 10 mM) came to 697 ± 203 µM.
With `O=C(NCCc1ccccc1)NC(Cc1ccc2c(c1)OCO2)Cc1ccc2c(c1)OCO2` [Compound 2], the “activity in YO-PRO 1 dye uptake screen” value is listed as “antagonist activity” and the “reduction of P2X7 activation” value is on record as “at least 50%”.
Taken in the same sequence, the figures for `O=C(CSc1ccccc1C(=O)Nc1ccnn1Cc1cccnc1)Nc1ccc2c(c1)OCO2` [Compound 9] were “antagonist activity” and “at least 50%”.
